In patent US6943181B2, “Use of substituted gamma-lactone compounds as pharmaceutical preparations” (Grunenthal GmbH, priority 2001, dated 2005):

molecular target: T1, nitrogen monoxide synthase (NO synthase) (Rattus norvegicus, UniProt P29476); assay: HTS-NOS assay (nitrogen monoxide synthase assay); format: biochemical; conditions: compound at 10 μM; enzyme preparation from rat cerebella; [3H]-arginine substrate
T1 construct: the supernatant was then decanted off and frozen in portions; from tissue; host or cells: rat cerebellum (homogenate, 20,000 g supernatant)
From the text: This assay makes it possible to determine the percentage inhibition of NO synthase by a compound of the general formula I used according to the invention by measuring NOS activity on exposure to the compound. NO synthase is here mixed under suitable conditions together with radioactively labelled arginine and the particular compound of the general formula I. After termination of the NO formation reaction at a predetermined time, the quantity of unconverted arginine is directly or indirectly determined. […] This assay may be carried out at follows: • (a) Incubation of the NO synthase with labelled arginine as the substrate in a reaction vessel, • (b) Separation of the labelled arginine from the labelled citrulline optionally arising as a product of the enzymatic reaction at a time at which the concentration of citrulline is rising, • (c) Measurement of the quantity of arginine separated in each case.
Separation is performed by means of a filter plate membrane.
Radioactive arginine is used as the substrate in this HTS-NOS assay. Depending on the type of microtitre plate (MTP), the assay volume may be selected in the range between 25 μl and 250 μl. Depending on the enzyme source used, cofactors and coenzymes are added. The batches are incubated in this microtitre plate (assay MTP) according to step (a) at room temperature and, depending on the enzyme activity used (units), lasts between 5 and 60 minutes. On completion of incubation (step (a)), the plate is placed in a cell harvester, which is equipped with an MTP which has a cation exchange membrane as a filter bottom (filter MTP). All the batches from the assay MTP are transferred into this filter MTP and suction filtered through a cation exchange filter plate, a paper filter loaded with phosphate groups. The filter MTP is then washed with buffer or water. This procedure binds the remaining substrate arginine onto the cation exchanger, while the enzymatically formed radioactive citrulline is quantitatively eluted. Once the filter MTP has been dried and scintillation liquid added, the bound arginine can be counted in the scintillation counter. Low radioactivity indicates an uninhibited NOS reaction. An inhibited enzyme reaction means that the radioactive arginine has not been converted. This means that there is a high level of radioactivity on the filter.
• Arginine, L-[2,3,4-^3H]-monohydrochloride; item no. […] The pH value of the buffer was adjusted to 7.4 at 25° C. • Washing medium: H2O Enzyme Preparation
Rat cerebella were used as the starting tissue. The animals were stunned and killed, the brain tissue, the cerebellum, was dissected out, 1 ml of enzyme preparation buffer (4° C.) was added per cerebellum, and the tissue was disrupted for 1 min at 6000 rpm in a Polytron homogeniser. The mixture was then centrifuged at 4° C. for 15 min at 20,000 g, and the supernatant was then decanted off and frozen in portions at −80° C. (discarding the precipitate).
96-Well MTPs with a well capacity of ≦250 μl were used Pipetting sequence: see table 1:
Once the pipetting operation was complete, a lid was laid on top of this MTP (assay MTP). Incubation at 25° C. (room temperature (RT)) for 5-60 min, depending on the quantity and activity of the enzyme used.
The contents of the assay MTP were then transferred with the assistance of a 96 well cell harvester into a 96 well cation exchange MTP (filter MTP) and suction filtered. A single washing with […] of H2O (from a trough) was then performed.
The plate was then dried for 1 h at 60° C. in a drying cabinet. The bottom of the filter MTP was then carefully sealed from beneath with a “back seal”. 35 μl of scintillating material were then pipetted into each well. The top of the plate was also sealed with a “top seal”. After 1 hour's waiting time, the plate was assessed on the β-counter.

SMILES	NOS (% inhibition)	inhibition at 10 µM
Cc1ccnc(NC2CC(C)(c3cccc(Cl)c3)OC2=O)c1[N+](=O)[O-] (stereo not drawn) [Example 51, 5-(3-Chloro-phenyl)-5-methyl-3-(4-methyl-3-nitro-pyridin-2-ylamino)-dihydro-furan-2-one]	–	50%
Cc1ccnc(NC2CC(C)(c3ccc(Br)cc3)OC2=O)c1[N+](=O)[O-] (stereo not drawn) [Example 52, 5-(4-Bromo-phenyl)-5-methyl-3-(4-methyl-3-nitro-pyridin-2-ylamino)-dihydro-furan-2-one]	–	43%
Cc1cccnc1NC1CC(C)(c2ccc(Br)cc2)OC1=O (stereo not drawn) [Example 59, 5-(4-Bromo-phenyl)-5-methyl-3-(3-methyl-pyridin-2-ylamino)-dihydro-furan-2-one]	–	45%
CCCc1nc(NC2CC(C)(c3cc(OC)cc(OC)c3)OC2=O)ncc1C(=O)OCC (stereo not drawn) [Example 61, 2-[5-(3,5-Dimethoxy-phenyl)-5-methyl-2-oxo-tetrahydro-furan-3-ylamino]-4-propyl-pyrimidine-5-carboxylic acid ethyl ester]	–	40%
COc1cc(OC)cc(C2(C)CC(Nc3n[nH]cc3Br)C(=O)O2)c1 (stereo not drawn) [Example 62, 3-(4-Bromo-1H-pyrazol-3-ylamino)-5-(3,5-dimethoxy-phenyl)-5-methyl-dihydro-furan-2-one]	–	40%
COc1ccc(OC)c(C2(C)CC(Nc3n[nH]cc3C#N)C(=O)O2)c1 (stereo not drawn) [Example 64, 3-[5-(2,5-Dimethoxy-phenyl)-5-methyl-2-oxo-tetrahydro-furan-3-ylamino]-1H-pyrazole-4-carbonitrile]	–	42%
COc1ccc(OC)c(C2(C)CC(Nc3n[nH]c(SC)c3C#N)C(=O)O2)c1 (stereo not drawn) [Example 65, 3-[5-(2,5-Dimethoxy-phenyl)-5-methyl-2-oxo-tetrahydro-furan-3-ylamino]-5-methylsulfanyl-1H-pyrazole-4-carbonitrile]	–	42%
COc1cc(OC)cc(C2(C)CC(Nc3ncc(C(F)(F)F)cc3Cl)C(=O)O2)c1 (stereo not drawn) [Example 68, 3-(3-Chloro-5-trifluoromethyl-pyridin-2-ylamino)-5-(3,5-dimethoxy-phenyl)-5-methyl-dihydro-furan-2-one]	–	60%
COc1ccc(OC)c(C2(C)CC(Nc3ncc(C(F)(F)F)cc3Cl)C(=O)O2)c1 (stereo not drawn) [Example 69, 3-(3-Chloro-5-trifluoromethyl-pyridin-2-ylamino)-5-(2,5-dimethoxy-phenyl)-5-methyl-dihydro-furan-2-one]	–	58%
COc1ccc(C2(C)CC(Nc3ncc(C(F)(F)F)cc3Cl)C(=O)O2)c(OC)c1 (stereo not drawn) [Example 71, 3-(3-Chloro-5-trifluoromethyl-pyridin-2-ylamino)-5-(2,4-dimethoxy-phenyl)-5-methyl-dihydro-furan-2-one]	–	54%
COc1ccc(C2(C)CC(Nc3cc(C)cc(C)n3)C(=O)O2)cc1OC (stereo not drawn) [Example 74, 5-(3,4-Dimethoxy-phenyl)-3-(4,6-dimethyl-pyridin-2-ylamino)-5-methyl-dihydro-furan-2-one]	–	51%

Further lines, results first:

NOS (% inhibition)	inhibition at 10 µM	SMILES
45%	–	Cc1cnc(NC2CC(C)(c3cccc4ccccc34)OC2=O)c(Br)c1 (stereo not drawn) [Example 48, 3-(3-Bromo-5-methyl-pyridin-2-ylamino)-5-methyl-5-naphthalen-l-yl-dihydro-furan-2-one]
53%	–	CCCc1cccc(NC2CC(C)(c3cccc4ccccc34)OC2=O)n1 (stereo not drawn) [Example 49, 5-Methyl-5-naphthalen-l-yl-3-(6-propyl-pyridin-2-ylamino)-dihydro-furan-2-one]
–	61%	CCCc1cccc(NC2CC(C)(c3cccc(Cl)c3)OC2=O)n1 (stereo not drawn) [Example 50, 5-(3-Chloro-phenyl)-5-methyl-3-(6-propyl-pyridin-2-ylamino)-dihydro-furan-2-one]
–	70%	Cc1nc(NC2CC(C)(c3ccc(I)cc3)OC2=O)ccc1Br (stereo not drawn) [Example 54, 3-(5-Bromo-6-methyl-pyridin-2-ylamino)-5-(4-iodo-phenyl)-5-methyl-dihydro-furan-2-one]
–	44%	CC1(c2ccc(I)cc2)CC(Nc2ncccc2OCc2ccccc2)C(=O)O1 (stereo not drawn) [Example 55, 3-(3-Benzyloxy-pyridin-2-ylamino)-5-(4-iodo-phenyl)-5-methyl-dihydro-furan-2-one]
–	59%	CC1(c2ccc(Br)cc2)CC(Nc2ncccc2OCc2ccccc2)C(=O)O1 (stereo not drawn) [Example 56, 3-(3-Benzyloxy-pyridin-2-ylamino)-5-(4-bromo-phenyl)-5-methyl-dihydro-furan-2-one]
–	72%	Cc1cc(C)nc(NC2CC(C)(c3ccc(I)cc3)OC2=O)c1 (stereo not drawn) [Example 57, 3-(4,6-Dimethyl-pyridin-2-ylamino)-5-(4-iodo-phenyl)-5-methyl-dihydro-furan-2-one]
–	73%	Cc1cc(C)nc(NC2CC(C)(c3cccc(Cl)c3)OC2=O)c1 (stereo not drawn) [Example 58, 5-(3-Chloro-phenyl)-3-(4,6-dimethyl-pyridin-2-ylamino)-5-methyl-dihydro-furan-2-one]
–	59%	Cc1ccnc(NC2CC(C)(c3ccc(Br)cc3)OC2=O)c1 (stereo not drawn) [Example 60, 5-(4-Bromo-phenyl)-5-methyl-3-(4-methyl-pyridin-2-ylamino)-dihydro-furan-2-one]
–	51%	COc1ccccc1C1(C)CC(Nc2n[nH]cc2Br)C(=O)O1 (stereo not drawn) [Example 63, 3-(4-Bromo-1H-pyrazol-3-ylamino)-5-(2-methoxy-phenyl)-5-methyl-dihydro-furan-2-one]
–	52%	COc1ccc(OC)c(C2(C)CC(Nc3ccccn3)C(=O)O2)c1 (stereo not drawn) [Example 66, 5-(2,5-Dimethoxy-phenyl)-5-methyl-3-(pyridin-2-ylamino)-dihydro-furan-2-one]
–	45%	COc1ccccc1C1(C)CC(Nc2ccccn2)C(=O)O1 (stereo not drawn) [Example 67, 5-(2-Methoxy-phenyl)-5-methyl-3-(pyridin-2-ylamino)-dihydro-furan-2-one]
–	51%	COc1ccccc1C1(C)CC(Nc2ncc(Cl)cc2Cl)C(=O)O1 (stereo not drawn) [Example 70, 3-(3,5-Dichloro-pyridin-2-ylamino)-5-(2-methoxy-phenyl)-5-methyl-dihydro-furan-2-one]
–	40%	COc1cccc(C2(C)CC(Nc3cc(C)cc(C)n3)C(=O)O2)c1 (stereo not drawn) [Example 72, 3-(4,6-Dimethyl-pyridin-2-ylamino)-5-(3-methoxy-phenyl)-5-methyl-dihydro-furan-2-one]
–	56%	COc1ccc(C2(C)CC(Nc3cc(C)cc(C)n3)C(=O)O2)cc1 (stereo not drawn) [Example 73, 3-(4,6-Dimethyl-pyridin-2-ylamino)-5-(4-methoxy-phenyl)-5-methyl-dihydro-furan-2-one]
–	48%	COc1ccc(C2(C)CC(Nc3cc(C)ccn3)C(=O)O2)cc1 (stereo not drawn) [Example 75, 5-(4-Methoxy-phenyl)-5-methyl-3-(4-methyl-pyridin-2-ylamino)-dihydro-furan-2-one]
